Source: patent US10597388B2, “Pyridazinone herbicides” (FMC CORPORATION, priority 2014, dated 2020)

What was measured:
Assay type in all cases: in vivo
[1] = system: ryegrass, Italian (Italian ryegrass, Lolium multiflorum); experiment: Test A greenhouse herbicide test, pre- and postemergence
Outline: (§1)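 Seeds sown in loam–sand blend got a preemergence directed soil spray of compound in non-phytotoxic solvent with surfactant. Postemergence treatment was given at 2–10 cm, one- to two-leaf stage. After ~10 d in greenhouse, injury was rated visually vs untreated controls, 0 (no effect) to 100 (complete control).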

[2] = system: wheat (Triticum aestivum); experiment: as above; details: Postemergence
Outline: as §1

[3] = system: pigweed (Amaranthus retroflexus); experiment: as above
Outline: as §1

[4] = system: blackgrass (Alopecurus myosuroides); experiment: Test A greenhouse herbicide test, postemergence
Outline: (§2)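 Plants grown in loam soil/sand blend pots were treated postemergence at 2 to 10 cm height, one- to two-leaf stage, with formulated test chemicals. After approximately 10 d in a greenhouse, injury was rated visually against untreated controls on a 0 to 100 scale (0 no effect, 100 complete control).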

[5] = system: galium (catchweed bedstraw, Galium aparine); experiment: Test A greenhouse herbicide test, postemergence
Outline: as §2

[6] = system: oilseed rape (Brassica napus); experiment: Test C greenhouse herbicide test, pre- and postemergence
Outline: (§3)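 Preemergence: seeds sown in a loam soil–sand blend and sprayed with test chemicals in a non-phytotoxic solvent mixture containing surfactant. Postemergence: plants grown in peat-based medium and treated at 2 to 18 cm (1- to 4-leaf stage). After 13 to 15 d in a greenhouse, injury was visually rated 0–100 against controls.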

[7] = system: morningglory (Ipomoea coccinea); experiment: as above
Outline: as §3

[8] = system: lambsquarters (Chenopodium album); experiment: as above
Outline: as §3

[9] = system: waterhemp (common waterhemp, Amaranthus rudis); experiment: as above
Outline: as §3

[10] = system: pigweed (Amaranthus retroflexus); experiment: as above
Outline: as §3

[11] = system: ragweed (common ragweed, Ambrosia elatior); experiment: as above
Outline: as §3

[12] = Postemergence, 125 g ai/ha, 0 to 100 scale where 0 is no effect and 100 is complete control
[13] = Postemergence, 500 g ai/ha, visual rating after approx. 10 d, 0 to 100 scale (0 no effect, 100 complete control)
[14] = Preemergence, 125 g ai/ha, 0 to 100 scale where 0 is no effect and 100 is complete control
[15] = Preemergence, 500 g ai/ha, 0 to 100 scale where 0 is no effect and 100 is complete control
[16] = 125 g ai/ha, 0 to 100 scale where 0 is no effect and 100 is complete control
[17] = 500 g ai/ha, visual rating after approx. 10 d, 0 to 100 scale (0 no effect, 100 complete control)
[18] = Postemergence, 31 g ai/ha, scale 0 to 100 (0 no effect, 100 complete control)
[19] = Postemergence, 125 g ai/ha, scale 0 to 100, 0 is no effect, 100 is complete control
[20] = Postemergence, 250 g ai/ha, scale 0 to 100, 0 no effect, 100 complete control, 13 to 15 d
[21] = Preemergence, 31 g ai/ha, scale 0 to 100, 0 is no effect, 100 is complete control
[22] = Preemergence, 62 g ai/ha, scale 0 to 100, 0 is no effect, 100 is complete control
[23] = Preemergence, 125 g ai/ha, scale 0 to 100, 0 is no effect, 100 is complete control
[24] = Preemergence, 250 g ai/ha, scale 0 to 100, 0 no effect, 100 complete control

CCC(=O)Oc1c(C)nn(C)c(=O)c1-c1ccc(F)c2ccccc12 [Compound 113]
Plant response rating, Ryegrass, Italian [1, 12]: 100 | Plant response rating, Ryegrass, Italian [1, 13]: 100 | Ryegrass, Italian plant response rating [1, 14]: 100 | Plant response rating, Ryegrass, Italian [1, 15]: 100 | Plant response rating, Wheat [2, 16]: 30 | Plant response rating, Wheat [2, 17]: 70 | Plant response rating, Pigweed [3, 12]: 90 | Plant response rating, Pigweed [3, 13]: 100 | Pigweed plant response rating [3, 14]: 100 | Plant response rating, Pigweed [3, 15]: 100 | Plant response rating, Blackgrass [4, 16]: 90 | Plant response rating, Blackgrass [4, 17]: 90 | Plant response rating, Galium [5, 16]: 100 | Plant response rating, Galium [5, 17]: 100 | Plant response rating, Oilseed Rape [6, 18]: 0 | Plant response rating, Oilseed Rape [6, 19]: 0 | Plant response rating, Oilseed Rape [6, 20]: 0 | Plant response rating, Oilseed Rape [6, 21]: 0 | Plant response rating, Oilseed Rape [6, 22]: 0 | Plant response rating, Oilseed Rape [6, 23]: 60 | Oilseed Rape plant response rating [6, 24]: 90 | Plant response rating, Morningglory [7, 18]: 98 | Plant response rating, Morningglory [7, 19]: 100 | Plant response rating, Morningglory [7, 20]: 100 | Plant response rating, Morningglory [7, 21]: 85 | Plant response rating, Morningglory [7, 22]: 95 | Plant response rating, Morningglory [7, 23]: 98 | Morningglory plant response rating [7, 24]: 100 | Plant response rating, Lambsquarters [8, 18]: 98 | Plant response rating, Lambsquarters [8, 19]: 100 | Plant response rating, Lambsquarters [8, 20]: 100 | Plant response rating, Lambsquarters [8, 21]: 90 | Plant response rating, Lambsquarters [8, 22]: 85 | Plant response rating, Lambsquarters [8, 23]: 90 | Lambsquarters plant response rating [8, 24]: 100 | Plant response rating, Waterhemp [9, 18]: 85 | Plant response rating, Waterhemp [9, 19]: 90 | Plant response rating, Waterhemp [9, 20]: 100 | Plant response rating, Waterhemp [9, 21]: 85 | Plant response rating, Waterhemp [9, 22]: 100 | Plant response rating, Waterhemp [9, 23]: 98 | Waterhemp plant response rating [9, 24]: 98 | Plant response rating, Pigweed [10, 18]: 65 | Plant response rating, Pigweed [10, 19]: 95 | Plant response rating, Pigweed [10, 20]: 98 | Plant response rating, Pigweed [10, 21]: 70 | Plant response rating, Pigweed [10, 22]: 75 | Plant response rating, Pigweed [10, 23]: 100 | Pigweed plant response rating [10, 24]: 100 | Plant response rating, Ragweed [11, 18]: 90 | Plant response rating, Ragweed [11, 19]: 98 | Plant response rating, Ragweed [11, 20]: 100 | Plant response rating, Ragweed [11, 21]: 65 | Plant response rating, Ragweed [11, 22]: 95 | Plant response rating, Ragweed [11, 23]: 85 | Ragweed plant response rating [11, 24]: 95
